Broadly, the melting point is the temperature, or range, at which the solid turns liquid. `COc1ccc(CNc2nc(CCC(=O)O)nc3sc4ccccc4c23)cc1Cl` [Example 2, 3-[4-(3-chloro-4-methoxybenzylamino)-benzothieno-[2,3-d]-pyrimidin-2-yl]propionic acid] showed a melting point of 218 °C.
In turn, `COC(=O)c1ccc(-c2nc(NCc3ccc(OC)c(Cl)c3)c3c(n2)sc2ccccc23)cc1` [Example 3, methyl 4-[4-(3-chloro-4-methoxybenzylamino)-[1]-benzothieno-[2,3-d]-pyrimidin-2-yl]benzoate] gave a melting point of 203 to 204 °C.

The record behind these values is patent publication US20040058940A1, “Pharmaceutical formulation comprising thienopyrimidines and antithrombotics, calcium antagonists, prostaglandins or prostaglandin derivatives (2)” (priority 2000, published 2004).
